Reference: paper PMC5516944 (Structure (London, England : 1993), 2017)

T1: hATL3 (Homo sapiens, UniProt Q6DD88)
T1 sequence (Q6DD88 1-442): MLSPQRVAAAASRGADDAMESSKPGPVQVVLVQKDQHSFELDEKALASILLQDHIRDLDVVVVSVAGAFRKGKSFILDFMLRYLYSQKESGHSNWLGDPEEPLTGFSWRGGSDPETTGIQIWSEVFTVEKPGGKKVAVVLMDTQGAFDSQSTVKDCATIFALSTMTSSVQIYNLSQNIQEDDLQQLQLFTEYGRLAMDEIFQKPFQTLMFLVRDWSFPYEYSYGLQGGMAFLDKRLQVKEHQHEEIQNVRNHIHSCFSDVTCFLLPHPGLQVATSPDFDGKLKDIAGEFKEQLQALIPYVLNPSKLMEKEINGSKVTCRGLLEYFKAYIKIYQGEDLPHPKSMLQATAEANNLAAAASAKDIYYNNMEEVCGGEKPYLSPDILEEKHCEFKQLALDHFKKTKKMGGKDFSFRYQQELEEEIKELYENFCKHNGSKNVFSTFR

T2: hATL1 (Homo sapiens, UniProt Q8WXF7)
T2 sequence (Q8WXF7 1-446): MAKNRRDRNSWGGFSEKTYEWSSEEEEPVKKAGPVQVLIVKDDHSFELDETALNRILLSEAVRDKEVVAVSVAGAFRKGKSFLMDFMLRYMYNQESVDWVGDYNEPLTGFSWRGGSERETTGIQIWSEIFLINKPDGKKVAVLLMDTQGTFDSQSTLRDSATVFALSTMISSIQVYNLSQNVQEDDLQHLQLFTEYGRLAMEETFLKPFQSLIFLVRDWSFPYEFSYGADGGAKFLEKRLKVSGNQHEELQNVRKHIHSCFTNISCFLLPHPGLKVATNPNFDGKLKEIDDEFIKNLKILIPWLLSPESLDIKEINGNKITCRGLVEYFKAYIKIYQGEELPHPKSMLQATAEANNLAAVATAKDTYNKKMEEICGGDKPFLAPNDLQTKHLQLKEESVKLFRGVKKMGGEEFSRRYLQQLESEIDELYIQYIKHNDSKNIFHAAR

B1: human atlastin 1 (hATL1) catalytic core fragment, G and middle domains (1–446) (domain or fragment, UniProt Q8WXF7 1-446, looked up)
chain: T2 sequence (Q8WXF7 1-446)
B2: human atlastin 3 (hATL3) catalytic core fragment, G and middle domains (1–442) (domain or fragment, UniProt Q6DD88 1-442, looked up)
chain: T1 sequence (Q6DD88 1-442)

Legend:
[1] = target: T1, hATL3; experiment: SEC-MALS, nucleotide-induced dimerisation; type: binding; settings: 1 mM nucleotide; 40 μM protein; pH 7.5; 4 mM MgCl2
[2] = target: T2, hATL1; experiment: SEC-MALS, nucleotide-induced dimerisation; type: binding; settings: 1 mM nucleotide; 40 μM protein; pH 7.5; 4 mM MgCl2
[3] = target: the molecule itself; experiment: SEC-MALS

Row | Molecule | SEC-MALS, nucleotide-induced dimerisation [1] | SEC-MALS, nucleotide-induced dimerisation [2] | stoichiometry N [3]
1 | Nc1nc2c(ncn2[C@@H]2O[C@H](COP(=O)(O)OP(=O)(O)NP(=O)(O)O)[C@@H](O)[C@H]2O)c(=O)[nH]1 [GppNHp] | dimeric ATLs are found when bound to GppNHp and GDP•AlFx | dimeric ATLs are found when bound to GppNHp and GDP•AlFx | 
2 | B1 |  |  | 2
3 | B2 |  |  | 2
